Results published in patent publication US20130041005A1, “PHARMACEUTICAL COMPOSITIONS COMPRISING NEUROPILIN INHIBITORS, AND THEIR USE FOR THE PREVENTION AND/OR TREATMENT OF ANGIOGENIC DISORDERS AND CANCERS” (TRAGEX PHARMA, priority 2011, published 2013).
Entries after “also recorded” stand apart in the source; their conditions may differ.

How the values were obtained:
Type in all cases: cell-based
[1] = system: endothelial (HUVEC) cells; assay: Apoptosis assay (Annexin V-FITC/PI), HUVEC; conditions: IC50 concentration, 72 h (FIG. 2B)
Protocol: The level of apoptosis in endothelial (HUVEC) and breast cancer cells (MDA-MB-231) was detected by Annexin V-FITC Apoptosis Detection Kit (ref 556547, BD Biosciences, France) according to the manufacturer's instructions. Briefly, HUVEC and MDA-MB-231 cells were treated separately with DMSO (control) and the compounds of the invention at the concentration corresponding to the IC50, obtained by the proliferation assay, for 72 h. After treatment, all cell including both detached and attached cells were collected, centrifugated at 14000 rpm for 5 min and the apoptotic cells were detected by staining with Annexin V-FITC and (propidium iodide) PI. The cells were resuspended in 100 μl Annexin V binding buffer (10 mM Hepes/NaOH, pH 7.4, 140 mM NaCl, […]) containing 5 μl of Annexin V-FITC and 5 μl of PI (propidium iodide). Samples were gently mixed and incubated for 2 h on ice and in the dark. Viable and apoptotic cell were detected by flow citometry (FACS Calibur Becton Dickinson, France). Apoptotic cells include both the early apoptotic portion (Annexin V-positive) and the late apoptotic portion (Annexin V- and PI-positive). Staurosporine is used as a positive control of apoptosis induction.

[2] = system: SH-SY5Y; assay: WST-1 proliferation assay, SH-SY5Y; conditions: Homo sapiens; Brain SH-SY5Y, 72 h; read-out: Anti-proliferative activity IC50 (μM) ± SD
Excerpt: Several cancer cell lines were used: breast cancer cells (MDA-MB-231 (ATTCC® Number HTB-26™), MDA-MB-436 (ATTCC® Number HTB-130™), MDA-MB-438, BT-474 (ATTCC® Number HTB-20™)); cervical cancer cells (HeLa (ATTCC® Number CCL-2™)); colon cancer cells (HCT-116 (ATTCC® Number CCL-247™) and HT-29 (ATTCC® Number HTB-38™)); osteosarcoma cells (U2OS (ATTCC® Number HTB-96™)); pancreas cancer cells (MIA PaCa-2 (ATTCC® Number CRL-1420™) and Panc-10.5 (ATTCC® Number CRL-2547™)); prostate cancer cells (PC-3 (ATTCC® Number CRL-1435™) and LNCaP (ATTCC® Number CRL-1740™)); brain cancer cells (U87 glioblastoma (ATTCC® Number HTB-14™) and SH-SYSY neuroblastoma (ATTCC® Number CRL-2266™)). […]
After observation of cells under the microscope, old media were removed and the adherent cells washed gently twice with PBS (Phosphate Buffer Saline, —Ca^2+, —Mg^2+, Lonza cat no: 17-512F/12). […] 50 μl of this solution were transferred in 20 μl of isotonic solution and the cells were counted by count cellular (Beckman Coulter). […]
The cell proliferation WST-1 assay is a colorimetric assay for the quantification of cell proliferation and viability, based on the enzymatic cleavage of the tetrazolium salt WST-1 added to the culture medium, to a water soluble colored formazan dye, detected by absorbance at 450 nm, by mitochondrial succinate-tetrazolium reductase in viable cells. […]

[3] = system: HCT-116; assay: WST-1 proliferation assay, HCT-116; conditions: Homo sapiens; for IC50: Colon HCT-116, 72 h, read-out: Anti-proliferative activity IC50 (μM) ± SD; for inhibition at 0.1 µM: HCT-116, 0.1 μM; for inhibition at 0.5 µM: HCT-116, 0.5 μM; for inhibition at 1 µM: HCT-116, 1 μM
Excerpt: Several cancer cell lines were used: breast cancer cells (MDA-MB-231 (ATTCC® Number HTB-26™), MDA-MB-436 (ATTCC® Number HTB-130™), MDA-MB-438, BT-474 (ATTCC® Number HTB-20™)); cervical cancer cells (HeLa (ATTCC® Number CCL-2™)); colon cancer cells (HCT-116 (ATTCC® Number CCL-247™) and HT-29 (ATTCC® Number HTB-38™)); osteosarcoma cells (U2OS (ATTCC® Number HTB-96™)); pancreas cancer cells (MIA PaCa-2 (ATTCC® Number CRL-1420™) and Panc-10.5 (ATTCC® Number CRL-2547™)); prostate cancer cells (PC-3 (ATTCC® Number CRL-1435™) and LNCaP (ATTCC® Number CRL-1740™)); brain cancer cells (U87 glioblastoma (ATTCC® Number HTB-14™) and SH-SYSY neuroblastoma (ATTCC® Number CRL-2266™)).
All the cancer cell lines were maintained in cultured in DMEM GlutaMAX™ (GIBCO Invitrogen, France, cat no 31966047) enhanced with 10% foetal bovine serum (GIBCO Invitrogen, France, cat no 10270-106) and 1% penicillin G/streptomycin (GIBCO Invitrogen, France, cat no 15140-122). Only Panc-10.5 cells were cultivated in RPMI 1640 medium (Gibco) supplemented with 2 mM L-glutamine, 1.5 g/L sodium bicarbonate, 4.5 g/L glucose, 10 mM HEPES, 1 mM sodium pyruvate, 10 Units/ml human insulin, […] (SVF): 15% (75 ml in 500 ml of medium).
Cells were grown as subconfluent monolayer and cultured in 75 cm^2 flasks at 37° C., 5% CO2 in a humidified atmosphere, and medium was changed every two days. Only cells from passages 2-6 were used for the experiments.
After observation of cells under the microscope, old media were removed and the adherent cells washed gently twice with PBS (Phosphate Buffer Saline, —Ca^2+, —Mg^2+, Lonza cat no: 17-512F/12). All cells were detached with 3 ml of trypsin/EDTA (chelator of calcium and magnesium ions) (Lonza), incubated for 5 min at 37° C., and examined using a microscope to ensure that the cells were detached and floating. Then, 3 ml TNS (Trypsin Neutralizing Solution, Lonza, France, cat no CC-5002) or of culture medium were added to inactivate the trypsin, and the cell suspension was transferred in a falcon and centrifuged for 7 min at 1400 rpm. The supernatant was removed and the cell pellet resuspended in […] of culture medium. 50 μl of this solution were transferred in 20 μl of isotonic solution and the cells were counted by count cellular (Beckman Coulter). At day 0, 200 μl of cellular suspension (3.10^3 cells/well for the HUVEC cells, breast cancer cells (MDA-MB-231 1.10^4 cells/well, MDA-MB-436 1.10^4 cells/well, MDA-MB-438 2.10^4 cells/well, BT-474 2.5.10^4 cells/well); cervical cancer cells (HeLa 5.000 cells/well); colon cancer cells (HCT-116 5.10^3 cells/well, HCT-29 1.1.10^4 cells/well); osteosarcoma cells (U2OS 8.10^3 cells/well); pancreas cancer cells (MIA PaCa-2 5.10^3 cells/well, Panc-10.5 1.5.10^4 cells/well); prostate cancer cells (PC-3 4.10^3 cells/well, LNCaP 2.10^4 cells/well); brain cancer cells (U87 5.10^3 cells/well, SH-SYSY 8.10^4 cells/well)) were then plated on 96 well plates and incubated at 37° C. in a humidified atmosphere of 5% CO2 for 24 h.
At day 1, the compounds 1 or 2 of the invention were added at increasing concentrations (0.1-10 μM) in the wells and plates were incubated at 37° C. in a humidified atmosphere of 5% CO2 for 72 h.
The cell proliferation WST-1 assay is a colorimetric assay for the quantification of cell proliferation and viability, based on the enzymatic cleavage of the tetrazolium salt WST-1 added to the culture medium, to a water soluble colored formazan dye, detected by absorbance at 450 nm, by mitochondrial succinate-tetrazolium reductase in viable cells. An augmentation in enzyme activity will then lead to an increase in the amount of formazan dye formed, which directly correlates to the number of metabolically active cells in the culture.
After an incubation period of 72 h, at day 4, were prepared the 19 ml medium with reagent WST-1 1 ml ([…]). The medium was removed from the 96 microplate and 200 μl of solution WST-1/medium were added for each well. […]

[4] = system: HUVEC; assay: Tube maintenance assay; conditions: VEGF-A165-treated HUVEC in collagen, 24 h treatment (FIG. 3C)
Protocol: A 96-well plate was coated with 70 μl of collagen/media solution (NaOH 0.1N, 48 μL 10× Na2HCO3 and 0.5 mL EBM2) and allowed to solidify at 37° C. for 3 min. HUVEC were seeded at a density of 8×10^5 cells for well in 100 μl complete culture medium. After confluent monolayer formation, a second collagen gel layer with EBM2 supplemented with 50 ng/ml of VEGF-A165 was added over cells and plates were incubated for 24 h at 37° C. and 5% CO2 to allow tube formation.

Row | Compound | induction of apoptosis in endothelial cells [1] | IC50 [2] [µM] | IC50 [3] [µM] | inhibition at 0.1 µM [3] [%] | inhibition at 0.5 µM [3] [%] | inhibition at 1 µM [3] [%] | maintenance of new blood vessels (tube maintenance) [4]
1 | Cc1ccc(-c2nc3ccccc3[nH]2)cc1NC(=S)NC(=O)c1ccc2c(c1)OCCO2 [Compound 1, N-[5-(1H-benzimidazol-2-yl)-2-methylphenyl]-N′-(2,3-dihydro-1,4-benzodioxin-6-ylcarbonyl)thiourea] | induced the apoptosis; also recorded: induction of apoptosis | 0.4 ± 0.03 | 1 | 7 | 51 | 56 | effectively inhibited
2 | O=C(NC(=S)Nc1cccc(-c2nc3ccccc3[nH]2)c1)c1ccc2c(c1)OCCO2 [Compound 2, N-[3-(1H-benzimidazol-2-yl)phenyl]-N′-(2,3-dihydro-1,4-benzodioxin-6-ylcarbonyl)thiourea] | induced the apoptosis; also recorded: induction of apoptosis | 0.05 ± 0.04 | 1 | 49 | 58 | 60 | effectively inhibited
